Source: US20160022684A1, “BET INHIBITOR AND BRUTON'S TYROSINE KINASE INHIBITOR COMBINATIONS” (Pharmacyclics LLC, priority 2014, published 2016)

Assays:
[1] = tested on: SU-DHL-2; assay: Combined drug treatment cell viability (CellTiter-Glo), ibrutinib with BET inhibitors, SU-DHL-2; assay type: cell-based; conditions: JQ1 100 nM, 3 days
Summary of the method: (§1)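 Viability read by CellTiter-Glo luminescence at room temperature; drug interaction expressed as combination index (CI).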

[2] = tested on: U-2932; assay: Combined drug treatment cell viability (CellTiter-Glo), ibrutinib with BET inhibitors, U-2932; assay type: cell-based; conditions: U2932, JQ1 20 nM, 3 days
Summary of the method: as §1

[3] = tested on: TMD8; assay: Combined drug treatment cell viability (CellTiter-Glo), ibrutinib with BET inhibitors, TMD8; assay type: cell-based; conditions: JQ1 20 nM, 3 days
Summary of the method: as §1

[4] = tested on: YAC-1 (target cells); assay: NK cell cytotoxicity of splenocytes from treated mice (A20 model); assay type: in vivo; conditions: combination of JQ1 with ibrutinib, splenocytes after 14 days of treatment, co-cultured with YAC-1 for 4 hours
Protocol: To determine the drug effect on NK cell cytotoxicity, splenocytes (effector cells) were harvested from mice after 14 days of treatment. The splenocytes were co-cultured with YAC-1 (target cells) for 4 hours. The percentage of target cell death (PI-positive cells) was analyzed by flow cytometry.

[5] = tested on: OCI-LY10; assay: Combined drug treatment cell viability (CellTiter-Glo), ibrutinib with BET inhibitors, OCI-LY10; assay type: cell-based; conditions: OCI-LY-10, JQ1 1 uM, 3 days
Summary of the method: as §1

[6] = tested on: OCI-LY3; assay: Combined drug treatment cell viability (CellTiter-Glo), ibrutinib with BET inhibitors, OCI-LY3; assay type: cell-based; conditions: OCI-LY-3, JQ1 1 uM, 3 days
Summary of the method: as §1

[7] = ibrutinib 0 nM (BET inhibitor alone): I-BET151 5 uM, OTX015 1 uM
[8] = ibrutinib 0.0256 nM with I-BET151 5 uM, OTX015 1 uM or medium alone (row)
[9] = ibrutinib 0.64 nM with I-BET151 5 uM, OTX015 1 uM or medium alone (row)
[10] = ibrutinib 3.2 nM with I-BET151 5 uM, OTX015 1 uM or medium alone (row)
[11] = ibrutinib 16 nM with I-BET151 5 uM, OTX015 1 uM or medium alone (row)
[12] = ibrutinib 80 nM with I-BET151 5 uM, OTX015 1 uM or medium alone (row)
[13] = ibrutinib 400 nM with I-BET151 5 uM, OTX015 1 uM or medium alone (row)
[14] = ibrutinib 2000 nM with I-BET151 5 uM, OTX015 1 uM or medium alone (row)
[15] = ibrutinib 10000 nM with I-BET151 5 uM, OTX015 1 uM or medium alone (row)
[16] = ibrutinib […] with I-BET151 5 uM, OTX015 1 uM or medium alone (row)

`Cc1sc2c(c1C)C(c1ccc(Cl)cc1)=N[C@@H](CC(=O)OC(C)(C)C)c1nnc(C)n1-2` [JQ1] was tested, and the luminescent signals ([1]; ibrutinib 0 nM (BET inhibitor alone): I-BET151 2 uM, OTX015 1 uM (Table 2)) was 17739.9, the luminescent signals ([1]; ibrutinib 0.0256 nM with I-BET151 2 uM, OTX015 1 uM (Table 2) or medium alone (row)) was 22662.83 and the luminescent signals ([1]; ibrutinib 0.64 nM with I-BET151 2 uM, OTX015 1 uM (Table 2) or medium alone (row)) was 19308.19. The luminescent signals ([1]; ibrutinib 3.2 nM with I-BET151 2 uM, OTX015 1 uM (Table 2) or medium alone (row)) was 25589.27, the luminescent signals ([1]; ibrutinib 16 nM with I-BET151 2 uM, OTX015 1 uM (Table 2) or medium alone (row)) was 20485.07 and the luminescent signals ([1]; ibrutinib 80 nM with I-BET151 2 uM, OTX015 1 uM (Table 2) or medium alone (row)) was 19823.08. It also gave a luminescent signals ([1]; ibrutinib 400 nM with I-BET151 2 uM, OTX015 1 uM (Table 2) or medium alone (row)) of 23679.47, a luminescent signals ([1]; ibrutinib 2000 nM with I-BET151 2 uM, OTX015 1 uM (Table 2) or medium alone (row)) of 29411.5 and a luminescent signals ([1]; ibrutinib 10000 nM with I-BET151 2 uM, OTX015 1 uM (Table 2) or medium alone (row)) of 3706.648. The luminescent signals ([1]; ibrutinib […] with I-BET151 2 uM, OTX015 1 uM (Table 2) or medium alone (row)) was 19174.22, the luminescent signals ([2]; ibrutinib 0 nM (BET inhibitor alone): I-BET151 200 nM, OTX015 50 nM (Table 2)) was 55050.2 and the luminescent signals ([2]; ibrutinib 0.0256 nM with I-BET151 200 nM, OTX015 50 nM (Table 2) or medium alone (row)) was 52636.54. For the same compound, the luminescent signals ([2]; ibrutinib 0.64 nM with I-BET151 200 nM, OTX015 50 nM (Table 2) or medium alone (row)) was 46610.32, the luminescent signals ([2]; ibrutinib 3.2 nM with I-BET151 200 nM, OTX015 50 nM (Table 2) or medium alone (row)) was 47334.95 and the luminescent signals ([2]; ibrutinib 16 nM with I-BET151 200 nM, OTX015 50 nM (Table 2) or medium alone (row)) was 46417.97. The luminescent signals ([2]; ibrutinib 80 nM with I-BET151 200 nM, OTX015 50 nM (Table 2) or medium alone (row)) was 49232.14, the luminescent signals ([2]; ibrutinib 400 nM with I-BET151 200 nM, OTX015 50 nM (Table 2) or medium alone (row)) was 44892.31 and the luminescent signals ([2]; ibrutinib 2000 nM with I-BET151 200 nM, OTX015 50 nM (Table 2) or medium alone (row)) was 44099.18. For the same compound, the luminescent signals ([2]; ibrutinib 10000 nM with I-BET151 200 nM, OTX015 50 nM (Table 2) or medium alone (row)) was 33551.32, the luminescent signals ([2]; ibrutinib […] with I-BET151 200 nM, OTX015 50 nM (Table 2) or medium alone (row)) was 54454.69 and the luminescent signals ([3]; ibrutinib 0 nM (BET inhibitor alone): I-BET151 200 nM, OTX015 100 nM) was 59694.27. It also gave a luminescent signals ([3]; ibrutinib 0.0256 nM with I-BET151 200 nM, OTX015 100 nM or medium alone (row)) of 18249.87, a luminescent signals ([3]; ibrutinib 0.64 nM with I-BET151 200 nM, OTX015 100 nM or medium alone (row)) of 16842.39 and a luminescent signals ([3]; ibrutinib 3.2 nM with I-BET151 200 nM, OTX015 100 nM or medium alone (row)) of 16468.11. It also gave a luminescent signals ([3]; ibrutinib 16 nM with I-BET151 200 nM, OTX015 100 nM or medium alone (row)) of 16312.6, a luminescent signals ([3]; ibrutinib 80 nM with I-BET151 200 nM, OTX015 100 nM or medium alone (row)) of 15297.84 and a luminescent signals ([3]; ibrutinib 400 nM with I-BET151 200 nM, OTX015 100 nM or medium alone (row)) of 15282.03. The luminescent signals ([3]; ibrutinib 2000 nM with I-BET151 200 nM, OTX015 100 nM or medium alone (row)) was 15571.96, the luminescent signals ([3]; ibrutinib 10000 nM with I-BET151 200 nM, OTX015 100 nM or medium alone (row)) was 9818.137 and the luminescent signals ([3]; ibrutinib […] with I-BET151 200 nM, OTX015 100 nM or medium alone (row)) was 18911.45. The “NK cytotoxicity (percentage of target cell death, PI-positive cells)” value [4] was “enhanced NK cytotoxicity”, the luminescent signals [5, 7] was 41458.59 and the luminescent signals [5, 8] was 45492.43. It also gave a luminescent signals [5, 9] of 52166.4, a luminescent signals [5, 10] of 39783.52 and a luminescent signals [5, 11] of 26164.72. The luminescent signals [5, 12] was 24844.65, the luminescent signals [5, 13] was 24502.8 and the luminescent signals [5, 14] was 24579.06. For the same compound, the luminescent signals [5, 15] was 25346.91, the luminescent signals [5, 16] was 47932.71 and the luminescent signals [6, 7] was 20530.28. For the same compound, the luminescent signals [6, 8] was 21973.49, the luminescent signals [6, 9] was 23078.2 and the luminescent signals [6, 10] was 22419.57. It also gave a luminescent signals [6, 11] of 21821.3, a luminescent signals [6, 12] of 21944.63 and a luminescent signals [6, 13] of 22621.62. For the same compound, the luminescent signals [6, 14] was 24841.54, the luminescent signals [6, 15] was 21414.57 and the luminescent signals [6, 16] was 22582.26.
